According to US11434490B2, “Fluorogen-binding RNA aptamers” (CENTRE NATIONAL DE LA RECHERCHE SCIENTIFIQUE, priority 2017, dated 2022):
Where two headings read alike, the source gives them in different places.

How the values were obtained:
[1] = In vitro fluorescence of Mango tagged RNA constructs; format: biochemical; conditions: 40 nM TO1-Biotin, 200 nM RNA
Text: FIG. 14|RNA scaffold diagrams. Diagrams of the 5S-Mango and U6-Mango constructs synthesized (sequences in Table 2) and their fluorescence emission as a function of wavelength after excitation at 505 nm, compared to unmodified Mango I-IV.
DNA encoding the F30 folding scaffold was modified to incorporate the Mango RNA sequences and ordered from (Intergrated DNA Technologies). The DNA was amplified by PCR to incorporate 5′ SalI and 3′ Xbal restriction sites. PCR products were digested using Fast Digest enzymes (Thermo Fisher) and ligated into SalI/Xbal linearized and Shrimp Alkaline Phosphotase (NEB) treated pAV5S-F30-2xdBroccoli (Addgene plasmid 66845, a gift from Dr S. Jaffrey). DNA encoding the full 5S-F30-Mango sequence was PCR amplified and a 5′ T7 RNA polymerase promoter introduced. DNA was transcribed in vitro with T7 RNA polymerase (NEB) at 37° C. for 16 h in 40 mM Tris-HCl, 30 mM MgCl2, 2 mM spermidine, 1 mM dithiothreitol, 5 mM rNTPs, 1 U/μl E. coli inorganic pyrophosphotase, 4 U/μl T7 RNA polymerase (pH 7.9). RNA was purified from an 8 M urea denaturing polyacrylamide […] gel followed by elution in RNA elution buffer (40 mM Tris-HCl pH 8.0, 0.5 M sodium acetate, 0.1 mM EDTA) and ethanol precipitation.

[2] = test system: HEK293T cells; experiment: Cellular imaging of transfected Mango tagged RNAs; format: cell-based; conditions: against 5S-F30-Mango-IV
Description: HEK293T cells were grown in Dulbecco Modified Eagle's Medium containing 10% Fetal Bovine Serum, 2 mM D-Glucose, 2 mM L-Glutamine, 1 mM Sodium Pyruvate and 100 U/ml Penicillin/Streptomycin (Thermo Fisher) and maintained at 37° C. with 5% CO2 in a humidified incubator. Cells used for imaging were cultured in Ibidi glass bottomed 8-well chamber slides (Ibidi GmbH).
RNA was transfected directly into 8-well chamber slides using the Lipofectamine-based CRISPRMAX reagent following the manufacturers guidelines (Invitrogen). Initially 125 nM RNA containing 10 mM Sodium Phosphate buffer (pH 7.2), 100 mM KCl and 1 mM MgCl2 was incubated at room temperature followed by a 1:1 dilution in OptiMEM prior to transfection. The RNA transfected was incubated at 37° C. for 1 hour in complete growth medium.
Cells were fixed in PBS containing 4% paraformaldehyde for 10 min on ice (Thermo Fisher) followed by permeabilization in 0.2% Triton X-100 for 10 min at room temperature. Cells were first blocked (2% BSA in PBS) for 30 min followed by primary antibody (1:50-1:500 dilutions) incubation for 120 min in blocking solution.
Primary antibodies used here were: Anti-Ribosomal Protein S6 (MAB5436, R&D Systems), Anti-ATP5B (ab14730, Abcam), Anti-GW182 (ab7052, Abcam), Anti-EEA-1 (ab70521, Abcam), Anti-LSm3 (NBP2-14206, Novus Biologicals), Anti-TIAR (sc-398372, Santa Cruz). Secondary antibodies used were Donkey Anti-mouse and Donkey Anti-Rabbit Alexa Fluor 680 (Molecular Probes). Primary antibodies were washed three times for 20 min each in blocking solution followed by incubation with secondary antibody at 1:500 dilution for 60 min, which was subsequently washed as above.
To visualize the nuclear boundary in live cells, a plasmid expressing a fluorescently tagged histone protein (EBFP2-H2B-6, Addgene plasmid 55243) was transfected using FuGene 6 (Promega) 24 h prior to RNA transfection. […] Following incubation of the RNA transfection, the cells were washed once with PBS and replaced with live-cell imaging media (Fluorobrite DMEM supplemented with 20 mM HEPES, Invitrogen). Live and fixed cell images were taken using a Zeiss Elyra wide-field microscope by exciting at 405 nm (Blue), 488 nm (Green) and 642 nm (Far-Red) and detecting at 420-480 nm, 495-550 nm and >650 nm, respectively. Live cells were maintained at 37° C. with 5% CO2 in a stage top incubator (Tokai Hit). Images were processed using FIJI and spot detection analysis was performed on each maximum projection by the spot detector plugin in the ICY image analysis software, which detects significant foci with a pixel area 3×3 pixels.

[3] = Salt dependence of Mango/TO1-Biotin fluorescence: Mg2+ titration; conditions: in the presence of potassium; Mg2+ 256 mM
Description: (§1) FIG. 10|Salt dependence of new Mango variants. Dependence of fluorescence of each Mango for (a) K^+, (b) Na^+ in place of K^+, and (c) Mg^2+ ions in a buffer containing 140 mM K^+. […] 10 mM Tris buffer (pH 7.2) was used in place of phosphate of the WB buffer to avoid monovalent counter ions. Color-coding is as follows: Black—Mango I, Blue—Mango II, Green—Mango III, Orange—Mango IV. Hill coefficients are fitted to dark points. Points in lighter shade have been excluded from the fit. Error bars are standard deviations of three replicates.

[4] = Photobleaching under constant illumination; conditions: identical illumination conditions, on average
Description: FIG. 16|Formation of 5S-Mango foci and their dynamics in live cells. (a) 5S-Mango IV imaged post cell fixation at 5, 15, 30 and 60 mins after transfection using Lipofectamine based CRISPRMAX transfection reagent. […] (c) Root mean-squared displacement (RMSD) of three observed foci with different diffusive behaviors, fast (Green), slow (Blue) and static (Red) shown in Video 3. Scale bars are 10 μm and arrows indicate foci of interest. (d) Normalized photobleaching traces of 5S-F30-Mango I and IV compared to 5S-F30-dBroccoli under constant illumination with an exposure time of 200 ms. Photobleaching half-lives are stated in the table adjacent and were calculated from an exponential fit of each curve.

[5] = original RNA Mango, earlier work; read-out: Kd for TO3-Biotin; cited from earlier work
[6] = read-out: Kd for TO1-Biotin, original RNA Mango, earlier work, cited from earlier work
[7] = Salt dependence of Mango/TO1-Biotin fluorescence: Na+ in place of K+; format: binding
Description: as §1

[8] = Formaldehyde resistance assay; format: physicochemical; conditions: in vitro, TO1-Biotin
Description: FIG. 15|Effect of formaldehyde on Mango fluorescence. […] In (b) RNA is incubated with the corresponding amounts of formaldehyde first for one hour, then TO1-Biotin is added. Data for each panel is normalized to RFU at the 0% formaldehyde, 0 min point.
RNA Mango aptamers were incubated with TO1-Biotin in WB buffer for at least one hour until equilibrium fluorescence was reached. […] Fluorescence was measured as a kinetic run at a rate of 2 readings per minute using a Varian Cary Eclipse Fluorescence Spectrophotometer, ex/em=510±2.5/535±5 nm.

[9] = Brightness and photophysics of Mango fluorophore complexes; format: physicochemical
Text: (§2) FIG. 2|RNA Mango I, II, III and IV core sequences and their properties. (a) Color coded alignment of RNA Mango I, II, III and IV. G residues in yellow are protected from DMS cleavage (data from panel d) when folded in the presence of fluorophore. Quadruplex stacks and their associated propeller sequences are numbered 1 through 4. The GAAA isolation motif of Mango I, together with two adenines essential for binding, are shown in green and red respectively. Purple shading represents a flanking stem region common for all four Mango aptamers. Schematic: A tertiary structure schematic of Mango I, showing tier 1, 2 and 3 of its quadruplex structure (T1, T2 and T3) and color-coded as in (a). […] Bottom: Top view of the Mango I core (PBD ID: 5V3F), showing the T3 tier of the quadruplex and relevant propeller residues, color coding matches the schematic and panel a. […] KD values are shown next to each titration. (c) Same as for panel b but using 20 nM TO3-Biotin. Data for panels b and c have been normalized such that Mango I has a maximum fluorescence of 1. Error bars are standard deviation of three replicates. (d) DMS chemical protection patterns for the four Mango aptamers. 3′ end-labelled RNA (terminal ^32pCp shown as a black asterisk) was subjected to DMS chemical modification followed by reduction by NaBH4 and aniline cleavage as described in the methods. […] Legend: T1—denatured T1 ladder; OH—partial alkaline hydrolysis ladder; (−) DMS—denatured reaction with ddH2O added in place of DMS; 80° C.
FIG. 13|Photophysics: excitation/emission. (a) Excitation (dark curve) and emission (light curve) spectra of each Mango. All Mangos have Δex max=510 nm and Δem max=535 nm. Color-coding is as follows: Black—Mango I, Blue—Mango II, Green—Mango III, Red—Mango IV.
(§3) Fluorescence data was gathered using a Varian Cary Eclipse Spectrophotometer unless otherwise stated. […] Fluorescence was measured at the maximum excitation and emission wavelengths of each complex (FIG. 13).

[10] = Salt dependence of Mango/TO1-Biotin fluorescence: K+ titration; format: binding; conditions: for Kd / Hill Coefficients K^+: 25 nM RNA, 50 nM TO1-Biotin, 10 mM Tris pH 7.2; for Hill Coefficients K^+: * estimated from initial rise of fluorescence
Description: as §1

[11] = test system: Circular template; experiment: Rolling circle transcription of Mango III; format: biochemical; conditions: room temperature, excess TO1-Biotin
Text: FIG. 33|Rolling circle transcription of Mango III.
FIG. 34|Rolling circle transcription of Mango III. Circular construct represented here was used in FIG. 33. Purple: T7 binding site, red and orange template hybridization arms (ligation site between them). Blue Mango sequence.
This illustrates that in select embodiments Mango aptamers may be used for detection of nucleic acids in a two-step fluorescence-based detection system using the Mango aptamers as the reporter. […] Nucleic acid concentration can be discerned by a simple fluorescence reading. In these assays, the Mango III fluorescence emerged rapidly upon the addition of the RNA polymerase (FIG. 32).

[12] = Fluorescence titration, binding affinity for TO1-Biotin
Text: as §2, §3
Where F([RNA]) is the fluorescence as a function of RNA concentration [RNA], Fmax is the maximal fluorescence of the bound complex and Funbound the fluorescence of the unbound fluorophore. When the fluorescence of Funbound was undetectable, it was set to zero.
Fluorescence readings were recorded using a Varian Cary Eclipse Spectrophotometer set to measure at the maximum excitation and emission wavelengths of the Mango II aptamer dye complex. Fluorescence titrations were performed in Mango selection buffer (WB: 140 mM KCl, 1 mM MgCl2, 10 mM NaH2PO4 pH 7.2, 0.05% Tween-20).

[13] = Brightness response to a fluorophore series; format: biochemical; conditions: 500 nM RNA, 10 nM fluorophore
Description: FIG. 53|Brightness response of MI, MII, MIII mutants and MIV to a fluorophore series. Single fluorescence point reads done in triplicate. 500 nM RNa was incubated with 10 nM fluorophore at room temperature for ˜1 h to allow folding of the RNA aptamers in 1×WB (140 mM KCl, 1 mM MgCl2, 10 mM NaH2PO4, pH 7.2.

[14] = Na+ in place of K+, 25 nM RNA, 50 nM TO1-Biotin

U6-Mango-IV: U6 snRNA with Mango-IV in an internal stem loop; SEQ ID NO: 6896 [Mango U6-Mango-IV]
fluorescence intensity in vitro [1]: comparable fluorescence intensity to Mango IV alone
increase of the fraction of nuclear foci [2]: ~9 fold

Mango-I: original RNA Mango aptamer; core SEQ ID NO: 1 GAAGGGACGGUGCGGAGAGGAGA (chemistry not given here) [reference compound]
effect of high levels of Mg^2+ on fluorescence [3]: strongly inhibited
bleaching half-lives longer than RNA Spinach [4]: 10 times
Kd [5]: 8 nM
Kd [6]: ~3 nM
Kd ([6]; listed as RNA Mango): 3.1 nM
fluorescence in the presence of sodium ions [7]: did not fluoresce appreciably
resistance to formaldehyde [8]: substantially resistant to formaldehyde
quantum yield of the TO1-Biotin complex [9]: 0.14
brightness of the TO1-Biotin bound complex [9]: 11,000 M^−1cm^−1
Kd [10]: 48 ± 5 mM
Hill Coefficients K^+ [10]: 1.2 ± 0.1

Mango-III: minimal construct engineered from isolate R5-NMM-20; two-tiered G-quadruplex aptamer
effect of high levels of Mg^2+ on fluorescence [3]: only modestly inhibited
sensitivity [11]: 5 nM
TO1-Biotin binding affinity (in words) [12]: slightly weaker affinities than Mango-I
Hill Coefficients Na^+ [7, 14]: 0.5 ± 0.5
Kd [7, 14]: 0.8 ± 0.3 mM
brighter than enhanced GFP (EGFP) ([9]; TO1-Biotin bound complex): 1.3 times
brightness of the TO1-Biotin bound complex [9]: 43,000 M^−1cm^−1
brighter than Mango-I ([9]; TO1-Biotin, FIG. 2b): 4 fold
Kd [10]: 0.4 ± 0.1 mM
Hill Coefficients K^+ [10]: 1.0 ± 0.8*
higher affinity of the fluorescence response to potassium and sodium ([10]; against the other Mangos): two order of magnitude
binding of TO1 fluorophore derivatives [13]: bound to a broad set of TO1 fluorophore derivatives
